Assay results reported in PubChem BioAssay AID463199 (Broad Institute, 2010).
Activity calls are given as the source filed them.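 The calls were made as follows: active = AC50, the dose giving half-maximal effect, exceeds a fixed cutoff for a compound that rescues yeast growth under heat; inactive = the rest, inconclusive results apart.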

These compounds were tested on S. cerevisiae Burl-1 ts mutant growth, BacTiter-Glo, 38.5C 24 h (assay: restored growth of temperature-sensitive Burl-1 yeast – whole organism, S. cerevisiae, Burl-1 ts mutant, luminescence, counter-screen for SUMOylation pathway inhibitor project, dose response (AID 463199)).

| SMILES | AC50 |
| --- | --- |
| COc1ccc(CN(CC(=O)NCc2ccco2)C(=O)CCC(=O)Nc2nccs2)cc1 | > 42 µM (inactive) |
| CN(C)C(=O)c1coc2nc3ccccc3nc12 | > 42 µM (inactive) |
| Cc1ccnc(NC(=O)CNC(=O)c2ccc(Br)o2)c1 | > 42 µM (inactive) |
| COc1ccccc1C1NC(=O)CS1 (stereo not given) | > 42 µM (inactive) |
| CC1(C)Cc2c(cnn2-c2ccc(F)cc2)C(NC(=O)CCCN2CCCCC2=O)C1 (stereo not given) | > 42 µM (inactive) |
| CC(C)c1nc2n[nH]c(N)c2c2c1CCC2 | > 42 µM (inactive) |
| CCOC(=O)c1oc2c(c1C)C(=O)CCC2 | > 42 µM (inactive) |
| CCOC(=O)/C(C#N)=C\c1ccc(CC)s1 | > 42 µM (inactive) |
| CCN1C(=O)c2cccc3c(S(=O)(=O)Nc4ccc(OC)cc4OC)ccc1c23 | > 42 µM (inactive) |
| Cc1cc(=O)oc(C)c1C(=O)Nc1ccc(Cl)cn1 | > 42 µM (inactive) |
| COc1cccc(NC(=O)Nc2cc(C(=O)NC(C)C)ccc2N2CC3CC(C2)c2cccc(=O)n2C3)c1 (stereo not given) | > 42 µM (inactive) |
| CCN(CC)c1nc2c(c(=O)[nH]c(=O)n2C)n1CCOc1ccccc1 | > 42 µM (inactive) |
| CCOc1ccc(N(CC(=O)NC2CCC(C)CC2)S(=O)(=O)c2c(C)noc2C)cc1 (stereo not given) | > 42 µM (inactive) |
| CC1=C/C(=N\OS(=O)(=O)c2ccccc2)C(C(C)C)=CC1=O | > 42 µM (inactive) |
| Cc1nn(CCOc2ccccc2)c(=O)n1-c1ccccc1F | > 42 µM (inactive) |
| NC(=O)CN1CCOCCN(CC(N)=O)CCOCC1 | > 42 µM (inactive) |
| O=C(Nc1cc(F)ccc1F)C1CCCO1 (stereo not given) | > 42 µM (inactive) |
| O=C(O)C1C2CCCCC2=C2CCCCC2C1C(=O)c1ccccc1 (stereo not given) | > 42 µM (inactive) |
| COc1ccc(-c2csc(NC(=O)CCS(=O)(=O)c3ccccc3)n2)c(OC)c1 | > 42 µM (inactive) |
| CCN(CC)C(=O)Cn1c(=O)n(CCCC(=O)NCc2ccccc2)c(=O)c2sccc21 | > 42 µM (inactive) |
| Cc1cccc(NC(=S)NC(=O)/C=C/c2ccco2)c1 | > 42 µM (inactive) |
| Cc1ccccc1C(=O)NNC(=S)Nc1cccc(C(F)(F)F)c1 | > 42 µM (inactive) |
| O=C(c1cc(-c2ccc(Cl)c(Cl)c2)on1)N1CCN(c2ccccc2)CC1 | > 42 µM (inactive) |
| CCN(CC)S(=O)(=O)c1ccc(C(=O)NCCc2cc3c(OC)ccc(OC)c3[nH]c2=O)cc1 | > 42 µM (inactive) |
| Cc1cc(C(F)(F)F)c(C#N)c(=O)[nH]1 | > 42 µM (inactive) |

| SMILES | AC50 |
| --- | --- |
| Cc1ccccc1NC(=O)COC(=O)C1C2CC3OC(=O)C1C3C2 (stereo not given) | > 42 µM (inactive) |
| CN(C)C(=O)c1cc(C(=O)c2ccc(C(F)(F)F)cc2F)c[nH]1 | > 42 µM (inactive) |
| CCN(CC)S(=O)(=O)c1ccc(S(=O)(=O)N2CCC(C(=O)NC3CCN(Cc4ccccc4)CC3)CC2)cc1 | > 42 µM (inactive) |
| CCCCc1ccc(S(=O)(=O)NNC(=S)NCc2ccco2)cc1 | > 42 µM (inactive) |
| COc1ccccc1NC(=O)c1nn(C)cc1Br | > 42 µM (inactive) |
| CCC(C)c1ccc(S(=O)(=O)N2CCN(C(=O)COc3ccc4c(C)cc(=O)oc4c3)CC2)cc1 (stereo not given) | > 42 µM (inactive) |
| Cc1ccc(O)c(C(=O)CC(=O)c2cccc(F)c2)c1 | 20.1 µM |
| Cc1cc(C)c(NC(=O)Cn2c([N+](=O)[O-])cnc2C)c(C)c1 | > 42 µM (inactive) |
| Cc1c(C(=O)OCC(=O)Nc2ccc(S(N)(=O)=O)cc2)oc2c1ccc1ccccc12 | > 42 µM (inactive) |
| CC(Oc1ccccc1)C(=O)Nc1ccccc1O (stereo not given) | > 42 µM (inactive) |
| COc1ccc(N2CCN(CCCNC(=O)C(=O)c3c(C)[nH]c4ccccc34)CC2)cc1 | > 21 µM (inactive) |
| CCc1ccccc1NC1c2ccccc2C(=O)N1c1cccnc1 (stereo not given) | > 42 µM (inactive) |
| O=[N+]([O-])c1ccc(-c2csc(N3CCc4ccccc4C3)n2)cc1 | > 42 µM (inactive) |
| Cc1ccc(/C=N/NC(=O)NC23CC4CC(CC(C4)C2)C3)o1 | > 42 µM (inactive) |
| COc1ccc(N2CCN(C(=O)Cn3nnc(-c4ccc(OC)c(OC)c4)n3)CC2)cc1 | > 42 µM (inactive) |
| CC(C)NC(=O)CCCc1cn(C)c2ccccc12 | > 42 µM (inactive) |
| Cc1cc(C)c2cc(C)c3nnc(SCC(=O)NCc4ccc5c(c4)OCO5)n3c2c1 | > 42 µM (inactive) |
| c1ccc(N2CCN(C3CCSC3)CC2)cc1 (stereo not given) | > 42 µM (inactive) |
| CC1=C(C#N)S(=O)(=O)C(C#N)C(c2ccccc2)C1 (stereo not given) | > 42 µM (inactive) |
| CCCN(CCC)C(=O)CSc1ncccc1C(=O)O | > 42 µM (inactive) |
| Cc1nc(CCNC(=O)c2ccccc2)cs1 | > 42 µM (inactive) |
| CCc1cc2c(NCCO)ncnc2s1 | > 42 µM (inactive) |
| COC(=O)c1ccccc1NC(NC(=O)c1ccco1)C(=O)c1ccccc1 (stereo not given) | > 42 µM (inactive) |
| CN(C)CCNC(=O)c1scc2c1CCCC2 | > 42 µM (inactive) |
| Cc1cc(C)cc(NC(=O)C2CCCN(S(=O)(=O)c3ccc4[nH]c(=O)ccc4c3)C2)c1 (stereo not given) | > 42 µM (inactive) |

| SMILES | AC50 |
| --- | --- |
| COc1ccc2c(c1)OC[C@H]1[C@H]2N2C(=O)c3cc(C)ccc3NC(=O)[C@@]2(C)[C@H]1c1ccccc1 | > 42 µM (inactive) |
| O=C(NC(=S)Nc1ccccc1N1CCCC1)c1ccc([N+](=O)[O-])cc1 | > 42 µM (inactive) |
| COc1cccc(S(=O)(=O)Nc2cccc(C(=O)N3CCOCC3)c2)c1 | > 42 µM (inactive) |
| CN(C)CCNC(=O)c1c(O)c2c([nH]c1=O)CCCC2 | > 42 µM (inactive) |
| O=C(CSc1ncn[nH]1)Nc1cccc(S(=O)(=O)N2CCCCCC2)c1 | > 42 µM (inactive) |
| COc1cc(NC(=S)N2CCN(C(=O)C3CCCO3)CC2)c(OC)cc1Cl (stereo not given) | > 42 µM (inactive) |
| Cc1ccc(NC2CC(=O)N(c3ccc(N4CCCCC4)cc3)C2=O)cc1 (stereo not given) | > 21 µM (inactive) |
| O=C(Cc1ccc(Cl)cc1Cl)OCC(=O)c1ccc[nH]1 | > 42 µM (inactive) |
| O=C(NCc1nc(-c2ccccc2)no1)c1cccs1 | > 42 µM (inactive) |
| COC(=O)CCCC(=O)NCC1(N(C)Cc2ccccc2)Cc2ccccc2C1 | > 42 µM (inactive) |
| O=C(COC(=O)COc1ccccc1Cl)Nc1ccccc1OC(F)F | > 42 µM (inactive) |
| COC(=O)c1cn(C(=O)c2cccc3ccccc23)c2ccccc12 | > 42 µM (inactive) |
| O=C(COc1ccc(Cl)cc1)NCCCNC(=O)c1ccccn1 | > 42 µM (inactive) |
| CCCCCCNc1c(C(=O)OCC)c(=O)[nH]c2ccccc12 | > 42 µM (inactive) |
| C=C(C)Cn1c(SCC(=O)N/N=C/c2ccccc2OCC(=O)O)nnc1-c1ccc(Br)cc1 | > 42 µM (inactive) |
| O=c1c2ccccc2ncn1-c1ccc(Cl)cc1Cl | > 42 µM (inactive) |
| CC(=O)c1c(N)[nH]c(-c2ccccc2)nc1=S | > 42 µM (inactive) |
| Cc1ccc(NC(=S)NC(NC(=O)c2ccccc2C)C(Cl)(Cl)Cl)c(C)c1 (stereo not given) | > 42 µM (inactive) |
| COc1ccc(NC(=O)c2ccc(-c3csc(C)n3)cc2)cc1 | > 42 µM (inactive) |
| COC(=O)c1ccccc1NC(=O)CSc1nnnn1CC(=O)O | > 42 µM (inactive) |
| COc1ccc(C(=O)Nn2c(SCC(=O)NCc3ccccc3)nc3ccccc3c2=O)cc1 | > 42 µM (inactive) |
| COCCNCc1ccccc1 | > 42 µM (inactive) |
| Cc1ccc(NC(=O)Cn2nc(C)c3ccccc3c2=O)cc1 | > 42 µM (inactive) |
| Cc1cc(=O)oc2ccc(OC(=O)CC(C)C)cc12 | > 42 µM (inactive) |
| CC(=O)c1ccc(N2CCN(CC(=O)Nc3cc(C)on3)CC2)cc1 | > 42 µM (inactive) |

| SMILES | AC50 |
| --- | --- |
| COc1ccc2c(c1)[C@H]1[C@H](CO2)[C@H](c2ccccc2)[C@]2(C)C(=O)Nc3cc(F)ccc3C(=O)N12 | > 42 µM (inactive) |
| CC(=O)N1c2ccc([N+](=O)[O-])cc2NC(=O)CC1C (stereo not given) | > 42 µM (inactive) |
| O=C(Nc1nnc(COc2ccc(F)cc2)s1)c1cccs1 | > 42 µM (inactive) |
| CC1(C)C2CC[C@]3(C)C(CC=C4[C@@H]5C[C@@](C)(CO)[C@@H](O)C[C@]56C[C@@H](OC6=O)[C@]43C)[C@@]2(C)CC[C@@H]1O (stereo not given in full) | > 42 µM (inactive) |
| O=C(NCc1cccc(F)c1F)C1CCC(=O)N(C2CC2)C1 (stereo not given) | > 42 µM (inactive) |
| c1ccc2c(c1)[nH]c1c(N3CCN(C4CCCCC4)CC3)ncnc12 | 39.8 µM |
| CC(=O)Nc1cccc(NC(=S)Nc2ccc(F)cc2F)c1 | > 42 µM (inactive) |
| CC(=O)N(C(C)=O)c1c(C#N)c(C)n(-c2ccccc2)c1C(=O)c1ccccc1 | > 42 µM (inactive) |
| S=c1[nH]nc(-c2ccccn2)n1/N=C/c1ccccc1 | > 42 µM (inactive) |
| Cc1cc(C)c(OCC(=O)N/N=C/c2ccco2)c(C)c1 | > 42 µM (inactive) |
| O=C1CSC(c2ccc(F)c(F)c2)N1c1ccccc1F (stereo not given) | > 42 µM (inactive) |
| O=C(COC(=O)c1cccc(Br)c1)Nc1ccc2[nH]c(=O)[nH]c2c1 | > 42 µM (inactive) |
| O=C1Nc2ccccc2/C1=C/c1ccc([N+](=O)[O-])cc1 | > 42 µM (inactive) |
| CCOC(=O)c1c(C)[nH]c2c1cc(O)c1ccccc12 | > 42 µM (inactive) |
| C[C@@]12C(=O)Nc3ccc(F)cc3C(=O)N1[C@H]1c3cc(Cl)ccc3OC[C@@H]1[C@@H]2c1ccccc1 | > 42 µM (inactive) |
| CC1CC(C)(C)N(C(=O)CN2C(=O)CCC2=O)c2ccccc21 (stereo not given) | > 42 µM (inactive) |
| N#CC(CC(=O)c1ccc(F)cc1)c1ccc2c(c1)OCO2 (stereo not given) | > 42 µM (inactive) |
| Cc1nc(CC(=O)N/N=C/c2ccc(OCC(=O)O)cc2)cs1 | > 42 µM (inactive) |
| Oc1c(Br)cc(Br)cc1C=Nc1cccnc1 | > 42 µM (inactive) |
| CN(C)C(CNC(=O)CNC(=O)c1ccc(Br)cc1)c1ccccc1 (stereo not given) | > 42 µM (inactive) |
| c1ccc2c(C[C@@H]3CNCCN3CCCCC3CCCCC3)cccc2c1 | > 42 µM (inactive) |
| COc1ccc2[nH]c(=O)c(CN(C(=O)c3ccccn3)c3ccccc3)cc2c1 | > 42 µM (inactive) |
| COC(=O)[C@H](Cc1ccccc1)NC(=O)NC(C)CCc1ccccc1 (stereo not given in full) | > 42 µM (inactive) |
| Cc1nc2ccccc2c(=O)n1CC(=O)N1CCOCC1 | > 42 µM (inactive) |
| OCC1(Cc2cccc(Cl)c2)CCCN(Cc2ccc(F)c(F)c2)C1 (stereo not given) | > 42 µM (inactive) |
